In patent publication US20140031217A1, “HERBICIDAL COMPOSITIONS COMPRISING 4-AMINO-3-CHLORO-5-FLUORO-6-(4-CHLORO-2-FLUORO-3-METHOXYPHENYL)PYRIDINE-2-CARBOXYLIC ACID OR A DERIVATIVE THEREOF AND AUXIN TRANSPORT INHIBITORS” (DOW AGROSCIENCES LLC, priority 2012, published 2014):

Experiments:
[1] = tested on: ECHCO; assay: Postemergence foliar-applied greenhouse weed control, ECHCO; format: in vivo, Echinochloa colona (L.) Link
Text: Seeds or nutlets of the desired test plant species were planted in a soil matrix prepared by mixing a loam or sandy loam soil (e.g., 28.6 percent silt, 18.8 percent clay, and 52.6 percent sand, with a pH of about 5.8 and an organic matter content of about 1.8 percent) and calcareous grit in an 80 to 20 ratio. The soil matrix was contained in plastic pots with a volume of 1 quart and a surface area of 83.6 square centimeters (cm^2). When required to ensure good germination and healthy plants, a fungicide treatment and/or other chemical or physical treatment was applied. The plants were grown for 8-22 days in a greenhouse with an approximate 14 h photoperiod which was maintained at about 29° C. during the day and 26° C. during the night. Nutrients (Peters Excel® 15-5-15 5-Ca 2-Mg and iron chelate) were applied in the irrigation solution as needed and water was added on a regular basis. Supplemental lighting was provided with overhead metal halide 1000-Watt lamps as necessary. The plants were employed for testing when they reached the first through fourth true leaf stage.
Treatments consisted of the acid or esters of 4-amino-3-chloro-5-fluoro-6-(4-chloro-2-fluoro-3-methoxy-phenyl) pyridine-2-carboxylic acid (Compound A), each formulated as an SC (suspension concentrate), and various herbicidal components alone and in combination. Forms of compound A were applied on an acid equivalent basis.
Other herbicidal components were applied on an active ingredient basis and included auxin transport inhibiting (ATI) herbicides chlorflurenol (technical material), chlorflurenol-methyl (technical material), diflufenzopyr (technical material), diflufenzopyr sodium (technical material), flurenol-methyl (technical material) and naptalam (technical material).
Treatment requirements were calculated based upon the rates being tested, the concentration of active ingredient or acid equivalent in the formulation, and a 12 mL application volume at a rate of 187 L/ha.
For treatments comprised of formulated and technical compounds, weighed amounts of the technical materials were placed individually in 25 mL glass vials and dissolved in a volume of 97:3 v/v acetone/DMSO to obtain 12× stock solutions, and measured amounts of the formulated compounds were placed individually in 25 mL glass vials and diluted in a volume of 1.5% (v/v) crop oil concentrate or water to obtain 12× stock solutions. […] Application solutions were prepared by adding an appropriate amount of each stock solution (e.g., 1 mL) and diluted to the appropriate final concentrations with the addition of an appropriate amount of an aqueous mixture of 1.5% (v/v) crop oil concentrate so that the final spray solutions contained 1.25% (v/v) crop oil concentrate. When required, additional water and/or 97:3 v/v acetone/DMSO was added to individual application solutions so that the final acetone and DMSO concentrations of the application solutions being compared were 8.1% and 0.25%, respectively.
All stock solutions and applications solutions were visually inspected for compound compatibility prior to application. Spray solutions were applied to the plant material with an overhead Mandel track sprayer equipped with an 8002E nozzle calibrated to deliver 187 L/ha over an application area of 0.503 m^2 at a spray height of 18 to 20 inches (46 to 50 cm) above average plant canopy height. Control plants were sprayed in the same manner with the solvent blank.
The treated plants and control plants were placed in a greenhouse as described above and watered by sub-irrigation to prevent wash-off of the test compounds. After approximately 3 weeks, the condition of the test plants as compared with that of the untreated plants was determined visually and scored on a scale of 0 to 100 percent where 0 corresponds to no injury or growth inhibition and 100 corresponds to complete kill. […]

[2] = tested on: ECHCG; assay: In-water applied (paddy) greenhouse weed control, ECHCG; format: in vivo, Echinochloa crusgalli (L.) Beauv.
Procedure: Weed seeds or nutlets of the desired test plant species were planted in puddled soil (mud) prepared by mixing a shredded, non-sterilized mineral soil (50.5 percent silt, 25.5 percent clay, and 24 percent sand, with a pH of about 7.6 and an organic matter content of about 2.9 percent) and water at a 1:1 volumetric ratio. The prepared mud was dispensed in 365 mL aliquots into 16-ounce (oz.) non-perforated plastic pots with a surface area of 86.59 square centimeters (cm^2) leaving a headspace of 3 centimeters (cm) in each pot. Mud was allowed to dry overnight prior to planting or transplanting. Rice seeds were planted in Sun Gro MetroMix® 306 planting mixture, which typically has a pH of 6.0 to 6.8 and an organic matter content of about 30 percent, in plastic plug trays. Seedlings at the second or third leaf stage of growth were transplanted into 840 mL of mud contained in 32-oz. non-perforated plastic pots with a surface area of 86.59 cm^2 4 days prior to herbicide application. The paddy was created by filling the headspace of the pots with 2.5 to 3 cm of water. When required to ensure good germination and healthy plants, a fungicide treatment and/or other chemical or physical treatment was applied. The plants were grown for 4-22 days in a greenhouse with an approximate 14 h photoperiod which was maintained at about 29′C during the day and 26° C. during the night. Nutrients were added as Osmocote® (19:6:12, N:P:K+minor nutrients) at 2 g per 16-oz. pot and 4 g per 960-mL 32-oz. pot. Water was added on a regular basis to maintain the paddy flood, and supplemental lighting was provided with overhead metal halide 1000-Watt lamps as necessary. The plants were employed for testing when they reached the second or third true leaf stage.
Treatments consisted of the acid or esters of 4-amino-3-chloro-5-fluoro-6-(4-chloro-2-fluoro-3-methoxy-phenyl)pyridine-2-carboxylic acid (compound A) each formulated as an SC and various herbicidal components alone and in combination. Forms of compound A were applied on an acid equivalent basis.
Other herbicidal components were applied on an active ingredient basis and included auxin transport inhibiting (ATI) herbicides chlorflurenol-methyl (technical material), chlorflurenol (technical material), diflufenzopyr (technical material), dilfufenzopyr sodium (technical material), flurenol-methyl (technical material,) and naptalam (technical material).
Treatment requirements for each compound or herbicidal component were calculated based upon the rates being tested, the concentration of active ingredient or acid equivalent in the formulation, an application volume of 2 mL per component per pot, and an application area of 86.59 cm^2 per pot.
For formulated compounds, a measured amount was placed in an individual 100 or 200 mL glass vial and was dissolved in a volume of 1.25% (v/v) Agri-Dex® crop oil concentrate to obtain application solutions.
For technical grade compounds, a weighed amount was placed in an individual 100 to 200 mL glass vial and was dissolved in a volume of acetone to obtain concentrated stock solutions. […] The concentrated stock solutions obtained were diluted with an equivalent volume of an aqueous mixture containing 2.5% (v/v) crop oil concentrate so that the final application solutions contained 1.25% (v/v) crop oil concentrate.
Applications were made by injecting with a pipetter appropriate amounts of the application solutions, individually and sequentially, into the aqueous layer of the paddy. Control plants were treated in the same manner with the solvent blank. Applications were made so that all treated plant material received the same concentrations of acetone and crop oil concentrate.
The treated plants and control plants were placed in a greenhouse as described above and water was added as needed to maintain a paddy flood. […]

| Structure (SMILES) | Visual Weed Control (%) Obs ([1]; 20 DAA, 4.38 gae/ha) | Visual Weed Control (%) Obs ([1]; 21 DAA, 4.38 gae/ha) | Visual Weed Control (%) Obs ([2]; 20 DAA, 17.5 gae/ha) | Visual Weed Control (%) Obs ([2]; 20 DAA, 35 gae/ha) | Visual Weed Control (%) Obs ([2]; 22 DAA, 8.75 gae/ha) | Visual Weed Control (%) Obs ([2]; 22 DAA, 17.5 gae/ha) | Visual Weed Control (%) Obs ([2]; 22 DAA, 35 gae/ha) | Visual Weed Control (%) Obs ([1]; 20 DAA, 8.75 gae/ha) | Visual Weed Control (%) Obs ([2]; 19 DAA, 8 gae/ha) | Visual Weed Control (%) Obs ([2]; 19 DAA, 16 gae/ha) | Visual Weed Control (%) Obs ([2]; 19 DAA, 32 gae/ha) | Visual Weed Control (%) Obs ([2]; 20 DAA, 4.38 gae/ha) | Visual Weed Control (%) Obs ([2]; 22 DAA, 4.38 gae/ha) |
| --- | --- | --- | --- | --- | --- | --- | --- | --- | --- | --- | --- | --- | --- |
| COc1c(Cl)ccc(-c2nc(C(=O)O)c(Cl)c(N)c2F)c1F [Compound A Acid, 4-amino-3-chloro-6-(4-chloro-2-fluoro-3-methoxyphenyl)-5-fluoropyridine-2-carboxylic acid] | 40% | 60% | 50% | 95% | 0% | 15% | 15% |  |  |  |  |  |  |
| COc1c(Cl)ccc(-c2nc(C(=O)OCc3ccccc3)c(Cl)c(N)c2F)c1F [Compound A Benzyl Ester] | 60% |  |  |  | 25% | 60% |  | 80% | 30% | 20% | 40% | 40% | 10% |
